Data taken from PubChem BioAssay AID2060332 (Molecular Pharmacology Branch, DTP, NCI, 2025).
“And” between values parts separate entries of the source, which are not always exact repeats. Identical values can stand only once.

System: LG0567-F671-PDC multi-cell spheroid viability
Assay: Anticancer human tumor LG0567-F671-PDC patient-derived lung adenocarcinoma cell line growth inhibition [IpAb]
Conditions: for viability, T/C: stronger effect = lower value
Description: Combinatorial screen of targeted agents with ipatasertib and abemaciclib in multi-cell type tumor spheroids
A high-throughput screen of multi-cell type tumor spheroids was designed to identify active combinations of targeted small molecules and ipatasertib or abemaciclib. Complex spheroids include a stromal component modeled by human endothelial cells (HUVEC) and fibroblasts modeled by human mesenchymal stem cells (MSCs). The concentration ranges selected for each drug and investigational agent were based upon clinically achievable concentrations if the clinical Cmax of the agent was known.
Compounds. The drugs and investigational agents: ipatasertib (NSC767898), abemaciclib(NSC768073), selumetinib (NSC741078), trametinib (758246), adavosertib (NSC754352), everolimus (NSC733504), sapanisertib (NSC764658), vemurafenib (NSC761431), venetoclax (NSC766270), copanlisib (NSC809693), apelisib (NSC765974), palbociblib (NSC758247), vemurafenib (NSC761431), dabrafenib (NSC764134), ravoxertinib (NSC781343), BMS-387032 (NSC767048), sotorasib (NSC818433), talazoparib (NSC767125) and afursertib (NSC778305), were obtained from the National Cancer Institute (NCI) Developmental Therapeutics Program Chemical Repository. The FDA-approved anticancer drug set is available from the NCI Developmental Therapeutics Program. […] The stock solutions were prepared in dimethyl sulfoxide (DMSO, Sigma-Aldrich, St. Louis, MO, cat. D2650) at 800-fold the tested concentration and stored at -70 degrees C prior to their use. All drugs and investigational agents were tested over a range starting from a high concentration at or near the clinical Cmax and decreasing in half-log increments. If the clinical Cmax for an agent had not been determined, the highest concentration tested was 10 microM.
NCI60 Cell Culture. NCI60 cell lines were obtained from the NCI Developmental Therapeutics Program Tumor Repository. For each lot of cells, the Repository performed Applied Biosystems AmpFLSTR Identifiler testing with PCR amplification to confirm consistency with the published Identifier STR profile for each cell line. Cells were kept in continuous culture for no more than 20 passages. The optimal seeding densities for each of the cell lines at each time point assessed were determined prior to performing the concentration response studies. Briefly, the NCI60 human tumor lines were grown as monolayers in RPMI 1640 medium supplemented with 10% FBS and 2 mmol/L L-glutamine.
An additional 9 lines were from the NCI60 cell line panel including MDA-MB-231 breast carcinoma, MDA-MB-468 breast carcinoma, MCF7 breast carcinoma, Hs578T breast carcinoma, MALME-3M melanoma, SK-MEL-2 melanoma, SK-OV-3 ovarian carcinoma, DU-145 prostate carcinoma, PC-3 prostate carcinoma, all cell lines along with major genetic alterations are listed on Table 2. Pooled donor human umbilical vein endothelial cells (HUVEC, Lonza, cat. CC-2519) and human mesenchymal stem cells (hMSC, Lonza, cat. PT-2501) were purchased from Lonza (Walkersville, MD).
PDMR cell lines were grown in complete medium (DC medium): Dulbecco's modified Eagle's medium (DMEM)/F12 supplemented with 5% fetal bovine serum (FBS), 2 mM L-glutamine, 100 U/mL penicillin and 100 µg/ml streptomycin, 0.4 µg/ml hydrocortisone, 10 ng/ml epidermal growth factor (EGF) recombinant human protein, 24 µg/mL adenine, and 0.1 mg/mL primocin. During culture from frozen stock vials, PDMR cells were cultured in the same medium containing 10 µM Y-27632 (see Table 3). The PDCs were cultured in complete DMEM/F12 media without 10 microM Y-27632 dihydrochloride for at least two passages prior to the screen. The pooled donor HUVEC and hMSC were cultured in endothelial cell growth medium 2 (PromoCell, Heidelberg, Germany, cat. C-22011) and mesenchymal stem cell growth medium 2 (PromoCell, cat. C-28009), respectively. For all experiments, HUVEC and hMSC were used at passages </=5.
[…]

[1] = curve of first compound, second compound 0.01 µM
[2] = curve of first compound, second compound 0.0316 µM
[3] = curve of first compound, second compound 0.1 µM
[4] = curve of first compound, second compound 0.316 µM
[5] = curve of first compound, second compound 1 µM
[6] = second compound 0.01 µM, first compound 0.0316 µM
[7] = second compound 0.01 µM, first compound 0.1 µM
[8] = second compound 0.01 µM, first compound 0.316 µM
[9] = second compound 0.01 µM, first compound 1 µM
[10] = second compound 0.01 µM, first compound 3.16 µM
[11] = second compound 0.01 µM, first compound 10 µM
[12] = second compound 0.0316 µM, first compound 0.0316 µM
[13] = second compound 0.0316 µM, first compound 0.1 µM
[14] = second compound 0.0316 µM, first compound 0.316 µM
[15] = second compound 0.0316 µM, first compound 1 µM
[16] = second compound 0.0316 µM, first compound 3.16 µM
[17] = second compound 0.0316 µM, first compound 10 µM
[18] = second compound 0.1 µM, first compound 0.0316 µM
[19] = second compound 0.1 µM, first compound 0.1 µM
[20] = second compound 0.1 µM, first compound 0.316 µM
[21] = second compound 0.1 µM, first compound 1 µM
[22] = second compound 0.1 µM, first compound 3.16 µM
[23] = second compound 0.1 µM, first compound 10 µM
[24] = second compound 0.316 µM, first compound 0.0316 µM
[25] = second compound 0.316 µM, first compound 0.1 µM
[26] = second compound 0.316 µM, first compound 0.316 µM
[27] = second compound 0.316 µM, first compound 1 µM
[28] = second compound 0.316 µM, first compound 3.16 µM
[29] = second compound 0.316 µM, first compound 10 µM
[30] = second compound 1 µM, first compound 0.0316 µM
[31] = second compound 1 µM, first compound 0.1 µM
[32] = second compound 1 µM, first compound 0.316 µM
[33] = second compound 1 µM, first compound 1 µM
[34] = second compound 1 µM, first compound 3.16 µM
[35] = second compound 1 µM, first compound 10 µM
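Note: viability read after 7 days of drug exposure.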
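Throughout, for viability, T/C: 100% = DMSO vehicle control luminescence.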

Cn1ncc(Cl)c1-c1cc(C(=O)NC(CN)Cc2cccc(F)c2)sc1Cl (stereo not given) + CCN1CCN(Cc2ccc(Nc3ncc(F)c(-c4cc(F)c5nc(C)n(C(C)C)c5c4)n3)nc2)CC1
IC50 [1]: 1850 nM | IC50 [2]: 1190 nM | IC50 [3]: 470 nM | IC50 [4]: < 31.6 nM | IC50 [5]: 226 nM | viability, T/C [6]: 88.8% | viability, T/C [7]: 68% | viability, T/C [8]: 50.2% | viability, T/C [9]: 61.4% | viability, T/C [10]: 49.9% | viability, T/C [11]: 0.15% | viability, T/C [12]: 57.7% | viability, T/C [13]: 53.9% | viability, T/C [14]: 49.9% | viability, T/C [15]: 54.2% | viability, T/C [16]: 28.6% | viability, T/C [17]: 0.13% | viability, T/C [18]: 74.8% | viability, T/C [19]: 51.4% | viability, T/C [20]: 52.7% | viability, T/C [21]: 45.8% | viability, T/C [22]: 27.6% | viability, T/C [23]: 0.13% | viability, T/C [24]: 42.4% | viability, T/C [25]: 51.4% | viability, T/C [26]: 57.9% | viability, T/C [27]: 33% | viability, T/C [28]: 30.9% | viability, T/C [29]: 0.14% | viability, T/C [30]: 59% | viability, T/C [31]: 51.8% | viability, T/C [32]: 47.2% | viability, T/C [33]: 37.4% | viability, T/C [34]: 30% | viability, T/C [35]: 0.19%

Cn1ncnc1[C@H]1c2n[nH]c(=O)c3cc(F)cc(c23)N[C@@H]1c1ccc(F)cc1
viability, T/C (compound 0.000316 µM): 113% and 103% | viability, T/C (compound 0.001 µM): 89.9% and 84.2% | viability, T/C (compound 0.00316 µM): 96.3% and 81.5% | viability, T/C (compound 0.01 µM): 69.8% and 66% | viability, T/C (compound 0.0316 µM): 42.7% and 73.8% | viability, T/C (compound 0.1 µM): 65.2% and 30.4% | IC50 (curve of compound): > 100 nM and 49.1 nM

CCCS(=O)(=O)Nc1ccc(F)c(C(=O)c2c[nH]c3ncc(-c4ccc(Cl)cc4)cc23)c1F
viability, T/C (compound 0.0316 µM): 101% and 97.6% | viability, T/C (compound 0.1 µM): 117% and 154% | viability, T/C (compound 0.316 µM): 143% and 135% | viability, T/C (compound 1 µM): 138% | viability, T/C (compound 3.16 µM): 197% and 189% | viability, T/C (compound 10 µM): 215% and 179% | IC50 (curve of compound): > 10000 nM

C=CC(=O)N1CCN(c2nc(=O)n(-c3c(C)ccnc3C(C)C)c3nc(-c4c(O)cccc4F)c(F)cc23)C(C)C1 (stereo not given) + CCN1CCN(Cc2ccc(Nc3ncc(F)c(-c4cc(F)c5nc(C)n(C(C)C)c5c4)n3)nc2)CC1
IC50 [1]: < 31.6 nM | IC50 [2]: < 31.6 nM | IC50 [3]: < 31.6 nM | IC50 [4]: < 31.6 nM | IC50 [5]: < 31.6 nM | viability, T/C [6]: 21.1% | viability, T/C [7]: 19.5% | viability, T/C [8]: 14.9% | viability, T/C [9]: 19.8% | viability, T/C [10]: 17.1% | viability, T/C [11]: 17.5% | viability, T/C [12]: 18.4% | viability, T/C [13]: 14.3% | viability, T/C [14]: 15.7% | viability, T/C [15]: 15.9% | viability, T/C [16]: 13.1% | viability, T/C [17]: 14% | viability, T/C [18]: 15.5% | viability, T/C [19]: 15.8% | viability, T/C [20]: 16.6% | viability, T/C [21]: 13.2% | viability, T/C [22]: 13.8% | viability, T/C [23]: 13.9% | viability, T/C [24]: 16.2% | viability, T/C [25]: 18.4% | viability, T/C [26]: 22.1% | viability, T/C [27]: 18.2% | viability, T/C [28]: 16.6% | viability, T/C [29]: 16% | viability, T/C [30]: 18.6% | viability, T/C [31]: 23% | viability, T/C [32]: 27.1% | viability, T/C [33]: 18.9% | viability, T/C [34]: 25.8% | viability, T/C [35]: 21.1%

Cn1nccc1Nc1nccc(-c2ccn(C(CO)c3ccc(Cl)c(F)c3)c(=O)c2)n1 (stereo not given) + CCN1CCN(Cc2ccc(Nc3ncc(F)c(-c4cc(F)c5nc(C)n(C(C)C)c5c4)n3)nc2)CC1
IC50 [1]: 121 nM | IC50 [2]: 131 nM | IC50 [3]: 87.3 nM | IC50 [4]: < 31.6 nM | IC50 [5]: < 31.6 nM | viability, T/C [6]: 77.9% | viability, T/C [7]: 47.2% | viability, T/C [8]: 46.7% | viability, T/C [9]: 31.2% | viability, T/C [10]: 26.9% | viability, T/C [11]: 29.6% | viability, T/C [12]: 60.9% | viability, T/C [13]: 48.9% | viability, T/C [14]: 45.9% | viability, T/C [15]: 28% | viability, T/C [16]: 26.2% | viability, T/C [17]: 24.9% | viability, T/C [18]: 57.1% | viability, T/C [19]: 48.3% | viability, T/C [20]: 40.5% | viability, T/C [21]: 28.1% | viability, T/C [22]: 31.2% | viability, T/C [23]: 24.9% | viability, T/C [24]: 49.7% | viability, T/C [25]: 46.4% | viability, T/C [26]: 37.1% | viability, T/C [27]: 34% | viability, T/C [28]: 24.6% | viability, T/C [29]: 28.5% | viability, T/C [30]: 42.8% | viability, T/C [31]: 50% | viability, T/C [32]: 40.3% | viability, T/C [33]: 29.3% | viability, T/C [34]: 25.5% | viability, T/C [35]: 23.1%

C=CCn1c(=O)c2cnc(Nc3ccc(N4CCN(C)CC4)cc3)nc2n1-c1cccc(C(C)(C)O)n1
viability, T/C (compound 0.0316 µM): 101% and 104% | viability, T/C (compound 0.1 µM): 76.4% and 73.2% | viability, T/C (compound 0.316 µM): 46.1% and 54.2% | viability, T/C (compound 1 µM): 45.3% and 54% | viability, T/C (compound 3.16 µM): 37.1% and 57.6% | viability, T/C (compound 10 µM): 30.6% and 41.5%
